{"source": "patent US8329719B2", "about": "“Neuroprotective agents for the prevention and treatment of neurodegenerative diseases” (Lixte Biotechnology, Inc., priority 2008, dated 2012)", "key": {"protein phosphatase 2A": {"molecular_target": "protein phosphatase 2A (Homo sapiens, UniProt P67775)", "sequence (P67775 whole entry)": "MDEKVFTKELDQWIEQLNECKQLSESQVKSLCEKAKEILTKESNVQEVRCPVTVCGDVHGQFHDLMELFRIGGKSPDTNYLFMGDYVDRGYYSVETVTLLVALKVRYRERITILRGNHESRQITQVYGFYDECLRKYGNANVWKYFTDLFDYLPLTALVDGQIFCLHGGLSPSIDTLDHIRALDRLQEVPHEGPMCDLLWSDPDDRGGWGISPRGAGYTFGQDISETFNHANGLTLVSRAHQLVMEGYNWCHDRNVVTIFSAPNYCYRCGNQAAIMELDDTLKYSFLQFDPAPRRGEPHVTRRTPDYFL", "experiment": "Inhibition of protein phosphatase 2A", "type": "biochemical"}, "HDAC": {"system": "HDAC", "experiment": "HDAC inhibition", "type": "biochemical"}, "[1]": {"system": "p-Akt / total Akt in medulloblastoma cells, DAOY", "experiment": "Induction of phosphorylated Akt in DAOY cells in culture (western blot)", "type": "cell-based, human", "conditions": "after 4 hours", "description": "FIG. 1: Induction of phosphorylated Akt by Compound 100 in DAOY cells in culture. • The medulloblastoma cells, DAOY, in culture were exposed to Compound 100, Compound 205 or vehicle alone. After 4 hours western blots were made for p-Akt, total Akt, and beta actin.\nMedulloblastoma cells, DAOY, were grown in culture and exposed to Compound 100, […] or vehicle alone. After 4 hours western blots were made for p-Akt, total Akt and beta actin."}, "Akt": {"system": "Akt", "experiment": "Akt phosphorylation in the cell lines tested growing as xenografts in SCID mice", "type": "in vivo", "conditions": "given intraperitoneally", "from_the_text": "The compounds increase the phosphorylation of several regulatory proteins including Akt. At low doses that are non-toxic to mice, these compounds slightly stimulate cell proliferation and increases phosphorylation of Akt in human cancer cell lines tested including SH-SY5Y."}, "[2]": {"system": "acetylated histone 3 and histone 4", "experiment": "Acetylation of Histone 3 and Histone 4 in normal mouse brain (western blot)", "type": "in vivo", "conditions": "for entry into the brain: mouse, given intraperitoneally, shown by histone acetylation; for acetylation of histone 3 and histone 4 in brain: normal mice, 0.03 mg/20 gram mouse, 4 hours of exposure, compared to control tissue", "description": "FIG. 5: Induction of acetylation of Histone 3 and Histone 4 in normal mouse brain by Compound 100 and Compound 102. • Normal mice were treated with Compound 100 and Compound 102, 0.03 mg/20 gram mouse. After 4 hours of exposure, treated and control animals (vehicle alone) animals were sacrificed and western blots for acetylated histone 3 and histone 4 were made.\nNormal mice were treated with Compound 100 or Compound 102 at a dose of 0.03 mg/20 gram mouse, or with vehicle. After 4 hours of exposure, treated and control animals were sacrificed and western blots for acetylated histone 3 and histone 4 were made."}, "[3]": {"system": "p-Akt / total Akt in human medulloblastoma DAOY xenografts", "experiment": "Induction of phosphorylated Akt in DAOY cells growing as xenografts in SCID mice (western blot)", "type": "in vivo", "conditions": "0.03 mg/20 gram mouse, after 4 hours and 24 hours", "description": "FIG. 2: Induction of phosphorylated Akt by Compound 100 in DAOY cells growing as xenografts in SCID mice. • SCID mice with human medulloblastoma cells, DAOY, implanted subcutaneously were treated with 0.03 mg/20 gram mouse with Compound 100 or vehicle alone. After 4 hours and 24 hours western blots were made for p-Akt, total Akt, and beta actin. Control cells (C) at both time points (only 24 hour point shown) had only trace amounts of p-Akt and substantial amounts of total Akt and beta actin.\nHuman medulloblastoma DAOY cells were implanted subcutaneously in SCID mice. Mice were then treated with 0.03 mg/20 gram mouse with Compound 100 or vehicle alone. After 4 hours and 24 hours, western blots were made for phosphorylated Akt (p-Akt), total Akt, and beta actin. Control cells at both time points had only trace amount of p-Akt and substantial amounts of total Akt and beta actin."}, "[4]": {"system": "p-Akt / total Akt in human glioblastoma U87 xenografts", "experiment": "Induction of phosphorylated Akt in U87 cells growing as xenografts in SCID mice (western blot)", "type": "in vivo", "conditions": "0.03 mg/20 gram mouse, after 4 hours", "description": "FIG. 4: Induction of phosphorylated Akt by Compound 100 in U87 cells growing as xenografts in SCID mice. • SCID mice with human glioblastoma cells, U87, implanted subcutaneously were treated with 0.03 mg/20 gram mouse with Compound 100 or vehicle alone. After 4 hours, western blots were made for p-Akt, total Akt, and beta actin.\nHuman glioblastoma U87 cells were implanted subcutaneously in SCID mice. Mice were then treated with 0.03 mg/20 gram mouse with Compound 100 or vehicle alone. After 4 hours, western blots were made for p-Akt, total Akt, and beta actin."}, "[5]": {"system": "p-Akt / total Akt in human glioblastoma cells, U87", "experiment": "Induction of phosphorylated Akt in U87 cells in culture (western blot)", "type": "cell-based", "conditions": "after 4 hours", "description": "FIG. 3: Induction of phosphorylated Akt by Compound 100 in U87 cells in culture. • The human glioblastoma cells, U87, were exposed to compound 100 or vehicle alone. After 4 hours western blots were made for p-Akt, total Akt, and beta actin.\nHuman glioblastoma cells, U87, were grown in culture and exposed to Compound 100 or vehicle alone. After 4 hours, western blots were made for p-Akt, total Akt, and beta actin."}, "[6]": {"system": "primary rat cortical neurons", "experiment": "Neurite extension after Calcein staining", "type": "cell-based", "conditions": "250 and 500 nM", "description": "Neurite extension was evaluated after Calcein staining using commercially available software."}, "[7]": {"system": "primary embryonal rat cortical neuronal cells", "experiment": "Survival of primary cortical neurons after environmental stress (growth factor deficient medium 1 hour)", "type": "cell-based", "conditions": "500 nM, cell counts at 3, 6, 13 and 23 days in culture, n=4", "description": "FIG. 6. Photomicrographs of primary embryonal rat cortical neuronal cells at 23 days subjected to environmental stress by exposure to growth factor deficient medium for 1 hour on day 3 of culture.\nFIG. 7. Average number of primary embryonal rat cortical neuronal cells at 3, 6, 13, and 23 days in culture (n=4). • All cultures were exposed to growth factor deficient medium for 1 hour on day 3 followed by of culture in complete medium containing no supplement (control), drug vehicle (0.05% DMSO), compound 102 (500 nM), or compound 201 (500 nM).\nNeurons were chronically or acutely treated with each compound and exposed to environmental stress (replacement of the culture medium with a saline PBS based solution for one hour followed by removal of the PBS medium and restoration of standard neuronal culture medium) and then observed for survival (FIG. 6)."}, "[8]": {"system": "NMDA type response to glutamate in primary rat cortical neurons", "experiment": "Calcium response of cultured neurons to acute glutamate exposure", "type": "cell-based", "conditions": "for calcium response to 200 uM glutamate versus DMSO control: 500 nM compound, 24 h prior to glutamate, single study; for average % increase in response to glutamate exposure: average of 4 separate experiments (FIG. 19)", "from_the_text": "To assess the effects of compound 102 and compound 201, independently, on neuronal function, the ability of the neurons in a culture dish to respond to exposure to glutamate was studied. In vitro, neurons respond to glutamate with the activation of several receptors associated with different transducing mechanisms. The assortment of glutamate sensitive receptors in a given neuronal population depends on maturation and differentiation. After seven days in culture, there is an assortment of glutamate receptors, including the AMPA/Kainate and NMDA receptors. AMPA/Kainate receptors are in general maximally expressed in the first few days in vitro followed by a gradual decline, while NMDA receptor expression increases over time, reaching a maximum after 7 days in vitro. AMPA/Kainate responses to exposure to glutamate as measured by calcium flux are characterized by fast desensitization (i.e. very little measurable calcium increase), while NMDA responses are characterized by an elevation of calcium concentration that persists as long as glutamate is applied. In the absence of test drug, there was variability in glutamate responsiveness dependent on NMDA receptor expression. A typical response of neurons in culture to glutamate characteristic of the NMDA receptors consists of a rapid increase and a high plateau phase of calcium (FIGS. 8-10). […] This modulation is compatible with a positive neurotrophic effect of compound 201."}}, "note": "Entries after “also recorded” stand apart in the source; their conditions may differ."}
{"smiles": "COC(=O)C1C(C(=O)N2CCN(C)CC2)[C@@H]2CC[C@H]1O2", "note": "(stereo partly shown) [Compound 107]", "values": [{"measurement": "inhibition of protein phosphatase 2A", "setting": "protein phosphatase 2A", "result": "inhibit protein phosphatase 2A"}]}
{"smiles": "CN1CCN(C(=O)C2C(C(=O)S)[C@H]3CC[C@@H]2O3)CC1", "note": "(stereo partly shown) [Compound 108]", "values": [{"measurement": "inhibition of protein phosphatase 2A", "setting": "protein phosphatase 2A", "result": "inhibit protein phosphatase 2A"}]}
{"smiles": "O=C(O)C1C(C(=O)N2CCN(Cc3ccccc3)CC2)[C@@H]2CC[C@H]1O2", "note": "(stereo partly shown) [Compound 103]", "values": [{"measurement": "inhibition of protein phosphatase 2A", "setting": "protein phosphatase 2A", "result": "inhibit protein phosphatase 2A"}]}
{"smiles": "CCN1CCN(C(=O)C2C(C(=O)O)[C@H]3CC[C@@H]2O3)CC1", "note": "(stereo partly shown) [Compound 105]", "values": [{"measurement": "inhibition of protein phosphatase 2A", "setting": "protein phosphatase 2A", "result": "inhibit protein phosphatase 2A"}]}
{"smiles": "CN(C)CCNC(=O)C1C(C(=O)O)[C@H]2CC[C@@H]1O2", "note": "(stereo partly shown) [Compound 106]", "values": [{"measurement": "inhibition of protein phosphatase 2A", "setting": "protein phosphatase 2A", "result": "inhibit protein phosphatase 2A"}]}
{"smiles": "COc1ccc(CCN2CCC(NC(=O)C3C(C(=O)O)[C@H]4CC[C@@H]3O4)CC2)cc1", "note": "(stereo partly shown) [Compound 104]", "values": [{"measurement": "inhibition of protein phosphatase 2A", "setting": "protein phosphatase 2A", "result": "inhibit protein phosphatase 2A"}]}
{"smiles": "O=C(O)C1C(C(=O)N2CCOCC2)[C@@H]2CC[C@H]1O2", "note": "(stereo partly shown) [Compound 111]", "values": [{"measurement": "inhibition of protein phosphatase 2A", "setting": "protein phosphatase 2A", "result": "inhibit protein phosphatase 2A"}]}
{"smiles": "O=C(CCCCCNC(=O)c1ccccc1S)Nc1cccnc1", "note": "[Compound 205]", "values": [{"measurement": "HDAC inhibition", "setting": "HDAC", "result": "investigational histone deacetylase inhibitor"}, {"measurement": "p-Akt (western blot)", "setting": "[1]", "result": "little effect; also recorded: no effect"}, {"measurement": "inhibition of protein phosphatase 2A", "setting": "protein phosphatase 2A", "result": "no anti-PP2A activity"}]}
{"smiles": "CN1CCN(C(=O)C2C(C(=O)O)[C@H]3CC[C@@H]2O3)CC1", "note": "(stereo partly shown) [Compound 100]", "values": [{"measurement": "Akt phosphorylation in xenografts", "setting": "Akt", "result": "increased Akt phosphorylation"}, {"measurement": "entry into the brain", "setting": "[2]", "result": "properties that enhance their entry into the brain"}, {"measurement": "acetylation of histone 3 and histone 4 in brain", "setting": "[2]", "result": "increased acetylation of the histones"}, {"measurement": "p-Akt (western blot)", "setting": "[3]", "result": "induction of p-Akt"}, {"measurement": "total Akt relative to beta actin (western blot)", "setting": "[3]", "result": "increase in total Akt relative to beta actin"}, {"measurement": "p-Akt (western blot)", "setting": "[4]", "result": "induction of p-Akt"}, {"measurement": "total Akt relative to beta actin (western blot)", "setting": "[4]", "result": "increase in total Akt relative to beta actin"}, {"measurement": "p-Akt (western blot)", "setting": "[1]", "result": "induction of p-Akt"}, {"measurement": "total Akt relative to beta actin (western blot)", "setting": "[1]", "result": "increase in total Akt relative to beta actin"}, {"measurement": "p-Akt (western blot)", "setting": "[5]", "result": "induction of p-Akt"}, {"measurement": "total Akt relative to beta actin (western blot)", "setting": "[5]", "result": "increase in total Akt relative to beta actin"}, {"measurement": "inhibition of protein phosphatase 2A", "setting": "protein phosphatase 2A", "result": "inhibit protein phosphatase 2A"}]}
{"smiles": "O=C(CCCCCNC(=O)c1ccccc1S)Nc1ccccc1", "note": "[Compound 201]", "values": [{"measurement": "process length", "setting": "[6]", "result": "increased process length"}, {"measurement": "total neurite outgrowth", "setting": "[6]", "result": "increased total neurite outgrowth"}, {"measurement": "neuronal cell number / protection of cell integrity after stress", "setting": "[7]", "result": "marked neurotrophic effects as evidenced by maintenance for up to 21 days neuronal cell numbers; also recorded: statistically significant (p<=0.01) protection of cell integrity"}, {"measurement": "calcium response to 200 uM glutamate versus DMSO control", "setting": "[8]", "result": "statistically significant increase in the NMDA type response to glutamate; also recorded: significantly enhanced the response to glutamate"}, {"measurement": "average % increase in response to glutamate exposure", "setting": "[8]", "result": "significantly enhanced the response to glutamate"}, {"measurement": "HDAC inhibition", "setting": "HDAC", "result": "class I and II HDAC inhibitor"}]}
{"smiles": "CC(C)(C)OC(=O)N1CCN(C(=O)C2C(C(=O)O)[C@H]3CC[C@@H]2O3)CC1", "note": "(stereo partly shown) [Compound 102]", "values": [{"measurement": "Akt phosphorylation in xenografts", "setting": "Akt", "result": "increased Akt phosphorylation"}, {"measurement": "process length", "setting": "[6]", "result": "increased process length"}, {"measurement": "total neurite outgrowth", "setting": "[6]", "result": "increased total neurite outgrowth"}, {"measurement": "neuronal cell number / protection of cell integrity after stress", "setting": "[7]", "result": "little effect on cell number"}, {"measurement": "entry into the brain", "setting": "[2]", "result": "properties that enhance their entry into the brain"}, {"measurement": "acetylation of histone 3 and histone 4 in brain", "setting": "[2]", "result": "increased acetylation of the histones"}, {"measurement": "calcium response to 200 uM glutamate versus DMSO control", "setting": "[8]", "result": "statistically significant increase in the NMDA type response to glutamate; also recorded: significantly enhanced the response to glutamate"}, {"measurement": "average % increase in response to glutamate exposure", "setting": "[8]", "result": "smaller but statistically significant effect; also recorded: less effective but still had a significant effect"}, {"measurement": "inhibition of protein phosphatase 2A", "setting": "protein phosphatase 2A", "result": "inhibit protein phosphatase 2A; also recorded: protein phosphatase 2A inhibitor"}]}
